Measured values from patent US12558428B2, “Heterobifunctional compounds and their use in treating disease” (Halda Therapeutics OpCo, Inc., priority 2024, dated 2026).

Columns and labels:
Format in all cases: cell-based
[1] = test system: T-Rex 293 cells having increased expression of estrogen receptor alpha protein; experiment: Cellular growth inhibition assay, T-Rex 293 cells, (+) doxycycline; conditions: T-REx-293, 72 h, Table 7-A; T-Rex 293 cells with doxycycline (increased ERα expression); 72 hours; CellTiter-Glo; read-out: (+) Dox GI50
Method: (§1) Exemplary compounds were tested for the ability to inhibit the proliferation of the following types of cells: (i) a T-Rex 293 cell line having increased expression of estrogen receptor alpha protein from exposure to doxycycline and (ii) a T-Rex 293 cell line lacking increased expression of estrogen receptor alpha protein.
(§2) The following types of cells were prepared for this experiment: (i) a T-Rex 293 cell line having increased expression of estrogen receptor alpha protein from exposure to doxycycline and (ii) a T-Rex 293 cell line lacking increased expression of estrogen receptor alpha protein. The ability of the test compounds to inhibit proliferation of the foregoing cell types was evaluated according to the procedures set forth below.
(§3) The doxycycline-inducible estrogen receptor alpha protein expressing cell line was established using the following protocol: T-Rex 293 cells were purchased from Invitrogen (Cat #R71007) and transfected using Lipofectamine 2000 with the wild-type estrogen receptor alpha protein sequence cloned into the pcDNA4/TO vector. Transfected cells were selected using 400 μg/mL Zeocin (Invitrogen Cat #R25001). Following selection, single clones were raised and maintained in Dulbecco's Modified Eagle Medium (DMEM) supplemented with 10% w/w Tetracycline-free fetal bovine serum (FBS) and 250 μg/mL Zeocin. Clones were analyzed for expression of estrogen receptor alpha protein in the presence and absence of 3 ng/mL doxycycline (Sigma Cat #D9891), and a single doxycycline-inducible clone (hereinafter “SC”) was selected for use in downstream assays.
(§4) The SC cells were seeded on poly-D-lysine coated, black clear-bottom 384-well plates at 2500/well, in 25 μL Phenol Red Free Dulbecco's Modified Eagle Medium (DMEM) supplemented with 10% w/w charcoal-dextran treated fetal bovine serum (FBS) and 1% w/w pen-strep, with or without 3 ng/mL doxycycline. Pen-Strep is a commercially available mixture of penicillin G and streptomycin, which is used in mammalian cell culture media to prevent bacterial contamination. Phenol Red Free Dulbecco's Modified Eagle Medium (DMEM) supplemented with 10% w/w charcoal-dextran treated fetal bovine serum (FBS) and 1% w/w pen-strep, with or without 3 ng/mL doxycycline is herein referred to as Treatment Medium. Following seeding of cells in the plates, the plates were spun at 300×g for 30 seconds, then equilibrated to room temperature for 30 minutes, and then deposited in a humidified tissue culture incubator maintained at 37° C. with 5% CO2.
(§5) At 24 hours after seeding of the cells, dilutions of test compound were prepared in DMSO and dissolved in Treatment Medium, to achieve a final DMSO concentration of 0.5% w/w, thereby providing the Test Compound Solution. A 25 μL aliquot of the Test Compound Solution was added to cells in the well plates. An equal volume of a solution containing DMSO and Treatment Medium was used as a negative control. Following treatment of cells with Test Compound Solution or said equal volume of a solution containing DMSO and Treatment Medium, the plates were spun at 300×g for 30 seconds, and then left in an incubator for 72 hours.
(§6) At the end of the treatment duration, cell viability was quantified with CellTiter-Glo 2.0 reagent (Promega Cat #G9243). For this purpose, plates were equilibrated to room temperature for 30 minutes, and then 25 μL of CellTiter-Glo 2.0 reagent was added to cells in the plate wells. Plates were then agitated on a shaker for two minutes at 500 rpm and subsequently incubated at room temperature for 10 minutes. Following incubation, the plates were spun at 3000×g for 30 seconds, then sealed with an optical adhesive cover, and luminescence readings were measured with an EnVision Plate Reader (Perkin Elmer).
(§7) Data was normalized using zero luminescence for baseline. […]

[2] = test system: T-Rex 293 cells lacking increased expression of estrogen receptor alpha protein; experiment: Cellular growth inhibition assay, T-Rex 293 cells, (−) doxycycline; conditions: T-REx-293, 72 h, Table 7-A; T-Rex 293 cells without doxycycline (lacking increased ERα expression); 72 hours; CellTiter-Glo; read-out: (−) Dox GI50
Method: as §1, §2, §3, §4, §5, §6, §7

[3] = test system: MCF7 cells (ATCC #HTB-22); experiment: Cellular growth inhibition assay, MCF7 cells purchased from ATCC; conditions: Homo sapiens, MCF7, 144 h, Table 8-A; MCF7 cells purchased from ATCC; six days; CellTiter-Glo; read-out: GI50
Method: Exemplary compounds were tested for the ability to inhibit the proliferation of MCF7 cells.
MCF7 cells (ATCC #HTB-22 or ECACC #86012803) were cultured in RPMI 1640 medium supplemented with 10% heat-inactivated fetal bovine serum, 1% pen-strep, and 0.2 U/ml insulin. Cells were seeded in 25 μL of RPMI 1640 medium supplemented with 10% heat-inactivated fetal bovine serum, 1% pen-strep, 0.2 U/ml insulin in poly-D-lysine treated, black clear-bottom 384-well plates at 225 cells/well for MCF7 cells purchased from ECACC or 1,500 cells/well for MCF7 cells purchased from ATCC. Following seeding, plates were spun at 300×g for 30 seconds and cultured at 37° C. with 5% CO2 in a humidified tissue culture incubator.
At 24 hours after seeding, compounds were titrated in 100% DMSO and diluted in RPMI 1640 medium supplemented with 10% heat-inactivate fetal bovine serum, 1% pen-strep, and 0.2 U/ml insulin. A 25 μL aliquot of the compound/media mixture was added to cells, bringing the total volume in each well to 50 μL. An equal volume of DMSO without compound was used as a negative control. After treatment, plates were spun at 300×g for 30 seconds, then cultured at 37° C. with 5% CO2 for six days in a humidified tissue culture incubator.
On Day 6 of treatment, cell viability was quantified with CellTiter-Glo 2.0 reagent (Promega). Plates were equilibrated to room temperature for 30 minutes, then 25 μL of CellTiter-Glo 2.0 reagent was added to cells, bringing the total volume in each well to 75 μL. After reagent was added, plates were mixed on a shaker for two minutes at 500 rpm and then incubated at room temperature for 10 minutes. Following incubation, plates were spun at 3,000×g for 30 seconds, sealed with an optical adhesive cover, and luminescence readings were measured with an EnVision Plate Reader.
Data was normalized to 0 luminescence for baseline. A four-parameter, non-linear regression curve fit was applied to dose-response data in GraphPad Prism data analysis software to determine the half maximal growth inhibitory concentration (GI50) for each compound.

SMILES | GI50 [3] [nM] | GI50 [1] [nM] | GI50 [2] [nM]
Cc1sc2c(c1C)C(c1ccc(OC3CCN(CC4CCN(c5ccc([C@@H]6c7ccc(O)cc7CC[C@@H]6c6ccccc6)cc5)CC4)CC3)cc1)=N[C@@H](C)c1nnc(C)n1-2 [III-86] | 50 to 500 | 50 to 500 | 500 to 2500
Cc1sc2c(c1C)C(c1ccc(N3CCC(C)(CNCCOc4ccc([C@@H]5c6ccc(O)cc6CC[C@@H]5c5ccccc5)cc4)CC3)cc1)=NC(Cc1ncco1)c1nnc(C)n1-2 (some centres unmarked) [III-62] | 50 to 500 | < 50 | 50 to 500
COC1(CN2CCN(c3ccc([C@@H]4c5ccc(O)cc5CC[C@@H]4c4ccccc4)cc3)CC2)CCN(c2ccc(C3=N[C@@H](C)c4nnc(C)n4-c4sc(C)c(C)c43)cc2)CC1 [III-121] | 500 to 2500 | 500 to 2500 | > 2500
Cc1sc2c(c1C)C(c1ccc(N3CCC(O)(CN4CCN(c5ccc([C@H]6c7ccc(O)cc7CC[C@H]6c6ccc(F)cc6)cc5F)CC4)CC3)cc1)=N[C@@H](C)c1nnc(C)n1-2 [III-250, 4-((4-(2-fluoro-4-((1S,2R)-2-(4-fluorophenyl)-6-hydroxy-1,2,3,4-tetrahydronaphthalen-1-yl)phenyl)piperazin-1-yl)methyl)-1-(4-((S)-2,3,6,9-tetramethyl-6H-thieno[3,2-f][1,2,4]triazolo[4,3-a][1,4]diazepin-4-yl)phenyl)piperidin-4-ol] | 50 to 500 | 50 to 500 | 50 to 500
Cc1sc2c(c1C)C(c1ccc(CCN3CC4(CCN(c5ccc([C@@H]6c7ccc(O)cc7CC[C@@H]6c6ccccc6)cc5)CC4)C3)cc1)=N[C@@H](C)c1nnc(C)n1-2 [III-98] | 50 to 500 | < 50 | 500 to 2500
Cc1sc2c(c1C)C(c1ccc(N3CCC(CN4CC(COc5ccc([C@H]6c7ccc(O)cc7CC[C@H]6c6ccccc6)cc5)C4)CC3)cc1)=N[C@@H](Cc1ncco1)c1nnc(C)n1-2 [III-92] | 50 to 500 | 50 to 500 | 50 to 500
Cc1sc2c(c1C)C(c1ccc(N3CCC(CC4(O)CCN(c5ccc([C@@H]6c7ccc(O)cc7CC[C@@H]6c6ccccc6)cc5)CC4)CC3)cc1)=N[C@H](Cc1ncco1)c1nnc(C)n1-2 [III-163] | 50 to 500 | > 2500 | > 2500
Cc1sc2c(c1C)C(c1ccc(C3CCN(CC4(O)CCN(c5ccc([C@@H]6c7ccc(O)cc7CC[C@@H]6c6ccccc6)cc5)CC4)CC3)cc1)=N[C@@H](C)c1nnc(C)n1-2 [III-26] | 50 to 500 | < 50 | 50 to 500
Cc1sc2c(c1C)C(c1ccc(N3CCC(O)(CN4CCN(c5cc(F)c([C@H]6c7ccc(O)cc7CC[C@H]6c6ccccc6)c(F)c5)CC4)CC3)cc1)=N[C@H](Cc1ncco1)c1nnc(C)n1-2 [III-195] | 500 to 2500 | > 2500 | > 2500
COc1cc(N2CCN(CC3CCN(c4ccc(C5=N[C@@H](C)c6nnc(C)n6-c6sc(C)c(C)c65)cc4)CC3)CC2)c(F)cc1[C@@H]1c2ccc(O)cc2CC[C@@H]1c1ccc(F)cc1 [III-313] |  | < 50 | 500 to 2500
Cc1sc2c(c1C)C(c1ccc(N3CCC(CN4CCN(c5ccc([C@H]6c7ccc(O)cc7CC[C@H]6c6cccc(F)c6)c(F)c5)CC4)CC3)cc1)=N[C@@H](C)c1nnc(C)n1-2 [III-326] |  | 500 to 2500 | 500 to 2500
COc1cc(N2CCN(CC3CCN(c4ccc(C5=N[C@@H](C)c6nnc(C)n6-c6sc(C)c(C)c65)c(F)c4)CC3)CC2)ccc1[C@H]1c2ccc(O)cc2CC[C@H]1c1ccc(C)cc1 [III-331] |  | 500 to 2500 | 500 to 2500

The next lines start with results.

GI50 [3] [nM] | SMILES | GI50 [1] [nM] | GI50 [2] [nM]
50 to 500 | Cc1sc2c(c1C)C(c1ccc(OCC3CCN(CCOc4ccc([C@@H]5c6ccc(O)cc6CC[C@@H]5c5ccccc5)cc4)CC3)cc1)=N[C@@H](Cc1ncco1)c1nnc(C)n1-2 [III-111] | < 50 | 50 to 500
50 to 500 | Cc1sc2c(c1C)C(c1ccc(N3CC4(CCC(F)(CN5CCC(c6ccc([C@@H]7c8ccc(O)cc8CC[C@@H]7c7ccccc7)cc6)CC5)CC4)C3)cc1)=N[C@@H](C)c1nnc(C)n1-2 [III-222] | < 50 | > 2500
< 50 | Cc1sc2c(c1C)C(c1ccc(N3CC4(CCC(CN5CCC(c6ccc(C7=C(c8ccccc8)CCCc8cc(O)ccc87)cc6)CC5)CC4)C3)cc1)=N[C@@H](C)c1nnc(C)n1-2 [IV-47] | < 50 | 500 to 2500
50 to 500 | Cc1sc2c(c1C)C(c1ccc(CC(=O)N3CCC4(CCN(c5ccc([C@@H]6c7ccc(O)cc7CC[C@@H]6c6ccccc6)cc5)CC4)C3)cc1)=N[C@@H](C)c1nnc(C)n1-2 [III-137] | 500 to 2500 | 500 to 2500
< 50 | Cc1sc2c(c1C)C(c1ccc(N3CCC(O)(CN4CCN(c5ccc([C@@H]6c7ccc(C(=O)O)cc7CC[C@@H]6c6ccccc6)cc5)CC4)CC3)cc1)=N[C@@H](Cc1ncco1)c1nnc(C)n1-2 [III-200] | < 50 | 50 to 500
< 50 | Cc1sc2c(c1C)C(c1ccc(N3CC(CN4CCN(C(=O)C5CN(c6ccc([C@@H]7c8ccc(O)cc8CC[C@@H]7c7ccccc7)cc6)C5)CC4)C3)cc1)=N[C@@H](Cc1ncco1)c1nnc(C)n1-2 [III-179] | < 50 | < 50
< 50 | CCN(CCOCCOCCOCCOCCOCCOCCCCCCCCc1cc(Cl)cc(NC(=O)NCc2ccc3c(c2)CN(C2CCC(=O)NC2=O)C3=O)c1)CCOc1ccc(C(=O)c2c(-c3ccc(O)cc3)sc3cc(O)ccc23)cc1 (centres unmarked) [II-1] |  | 
< 50 | CCN(CCCCCCCCc1cc(Cl)cc(NC(=O)NCc2ccc3c(c2)CN(C2CCC(=O)NC2=O)C3=O)c1)CCOc1ccc(C(=O)c2c(-c3ccc(O)cc3)sc3cc(O)ccc23)cc1 (centres unmarked) [II-3] |  | 
